Experimental findings from patent US20230100838A1 (Revolution Medicines, Inc., priority 2019, published 2023) are described below.

The structures appear in SMILES notation.

The target of assay [1] is T1, GDP-loaded K-Ras (1-169) G12D, C51S, C80L, C118S (Homo sapiens, UniProt P01116, C118S/C51S/C80L/G12D).
T1 construct: GDP-loaded K-Ras (1-169) G12D, C51S, C80L, C118S
Briefly: K-Ras G12D(GDP) cross-linking assay (conjugate formation, TOF mass spectrometry). The settings on record: Table 5; percent covalently modified K-Ras by MS; room temperature; typical compound conc. 2, 10, 25 μM, endpoints 1 and 24 h. The class given is binding. Also noted: key: 0: No observed x-linking; +: 0 < x ≤ 20; ++: 20 < x ≤ 40; +++: 40 < x ≤ 100. As to the method:
(§1) Protocol: K-Ras G12D(GDP) Cross-Linking Assay
(§2) Note: while the following protocol outlines the procedure for K-Ras G12D(GDP), a person of skill in the art may substitute other Ras proteins, and may also substitute a non-hydrolyzable GTP analog for GDP to study GTP bound Ras protein.
(§3) GDP-loaded K-Ras (1-169) G12D, C51S, C80L, C118S and GDP-loaded K-Ras (1-169) C51S, C80L, C118S were adjusted to 50 μM in K-Ras assay buffer (12.5 mM HEPES, 75 mM NaCl and 1 mM MgCl2 at pH 7.4). A 5 μL aliquot of each protein solution was added to each well of a 96-well microplate containing 40 μL of assay buffer. Initial compound stocks were prepared in DMSO at 100 times their final assay concentration. Compounds were then diluted 10-fold into K-Ras assay buffer to 10 times their final concentration. A 5 μL aliquot of each diluted compound solution was added to each protein solution in the 96-well microplate to initiate the reaction, which then proceeded at room temperature. Typical final compound concentrations were 2, 10, and 25 μM. At each time point, the reactions were analyzed immediately or quenched with 5 μL of a 5% formic acid solution and kept at 4° C. until analysis. Typical assay endpoints were 1 and 24 h.
(§4) Data collection took place on an Agilent 6230 TOF Mass Spectrometer. Complete reactions were injected onto a C4 reverse-phase column to separate protein from buffer components prior to entering the mass spectrometer. The proteins were eluted from the column by increasing acetonitrile fraction in the mobile phase and fed directly into the mass analyzer. Initial analysis of raw data took place in Agilent MassHunter BioConfirm software and consisted of deconvolution of multiple protein charge states with the maximum entropy algorithm, with a mass step of 1 Da. The heights of all deconvoluted protein masses were exported for further data analysis. The percent modification of each protein was then determined by calculating the peak height of the covalently modified K-Ras species as a percentage of the sum total of K-Ras protein peak height.

Assay [2] concerns the target T2, GDP-loaded K-Ras (1-169) C51S, C80L, C118S (Homo sapiens, UniProt P01116, C118S/C51S/C80L).
T2 construct: GDP-loaded K-Ras (1-169) C51S, C80L, C118S
Nature of the assay: K-Ras WT (GDP) cross-linking assay (conjugate formation, TOF mass spectrometry). Also noted: key: 0: No observed x-linking; +: 0 < x ≤ 20; ++: 20 < x ≤ 40; +++: 40 < x ≤ 100. The settings on record: Table 5; percent covalently modified K-Ras by MS; room temperature; typical compound conc. 2, 10, 25 μM, endpoints 1 and 24 h. The class given is binding. The method, then: as §1, §2, §3, §4

For the molecule `COC(=O)[C@@H]1CN1C(=O)N1CCN(c2nc(OC[C@@H]3CCCN3C)nc3c2CCN(c2cccc4cccc(C)c24)C3)C[C@@H]1CC#N` [Example 109, methyl (S)-1-((S)-2-(cyanomethyl)-4-(7-(8-methylnaphthalen-1-yl)-2-(((S)-1-methylpyrrolidin-2-yl)methoxy)-5,6,7,8-tetrahydropyrido[3,4-d]pyrimidin-4-yl)piperazine-1-carbonyl)aziridine-2-carboxylate], in assay [1], the “G12D x-linking (%)” value was “+ (0 < x ≤ 20)”. Also, the “WT x-linking (%)” value in assay [2] is reported as “+ (0 < x ≤ 20)”.
Turning to `Cc1ccc2[nH]ncc2c1N1CCc2c(nc(OC[C@@H]3CCCN3C)nc2N2CCN(C(=O)[C@H]3CN3)[C@@H](CC#N)C2)C1` [Example 110, 2-((S)-1-((R)-aziridine-2-carbonyl)-4-(7-(5-methyl-1H-indazol-4-yl)-2-(((S)-1-methylpyrrolidin-2-yl)methoxy)-5,6,7,8-tetrahydropyrido[3,4-d]pyrimidin-4-yl)piperazin-2-yl)acetonitrile], the “G12D x-linking (%)” value in assay [1] is recorded as “+ (0 < x ≤ 20)”. Moreover, the “WT x-linking (%)” value in assay [2] is listed as “+ (0 < x ≤ 20)”.
On to `Cc1ccc2[nH]ncc2c1N1CCc2c(nc(OC[C@@H]3CCCN3C)nc2N2CCN(C(=O)[C@@H]3CN3)[C@@H](CC#N)C2)C1` [Example 111, 2-((S)-1-((S)-aziridine-2-carbonyl)-4-(7-(5-methyl-1H-indazol-4-yl)-2-(((S)-1-methylpyrrolidin-2-yl)methoxy)-5,6,7,8-tetrahydropyrido[3,4-d]pyrimidin-4-yl)piperazin-2-yl)acetonitrile], for which the “G12D x-linking (%)” value in assay [1] is “+ (0 < x ≤ 20)”. The “WT x-linking (%)” value in assay [2] is on record as 0.
Taken in the same sequence, the figures for `CN1CCC[C@H]1COc1nc2c(c(N3CCN(C(=O)[C@H]4CN4)[C@@H](CC#N)C3)n1)CCN(c1cccc3cccc(Cl)c13)C2` [Example 112, 2-((S)-1-((R)-aziridine-2-carbonyl)-4-(7-(8-chloronaphthalen-1-yl)-2-(((S)-1-methylpyrrolidin-2-yl)methoxy)-5,6,7,8-tetrahydropyrido[3,4-d]pyrimidin-4-yl)piperazin-2-yl)acetonitrile] were “++ (20 < x ≤ 40)” and 0.
For `CN1CCC[C@H]1COc1nc2c(c(N3CCN(C(=O)[C@@H]4CN4)[C@@H](CC#N)C3)n1)CCN(c1cccc3cccc(Cl)c13)C2` [Example 113, 2-((S)-1-((S)-aziridine-2-carbonyl)-4-(7-(8-chloronaphthalen-1-yl)-2-(((S)-1-methylpyrrolidin-2-yl)methoxy)-5,6,7,8-tetrahydropyrido[3,4-d]pyrimidin-4-yl)piperazin-2-yl)acetonitrile] the same measures were “+ (0 < x ≤ 20)” and “+ (0 < x ≤ 20)”.
On to `CN1CCC[C@H]1COc1nc2c(c(N3CCN(C(=O)[C@H]4CN4)[C@@H](CC#N)C3)n1)CCN(c1cc(O)cc3ccccc13)C2` [Example 114], for which, in assay [1], the “G12D x-linking (%)” value is listed as “++ (20 < x ≤ 40)”. Also, the “WT x-linking (%)” value in assay [2] is given as 0.
For `CN1CCC[C@H]1COc1nc2c(c(N3CCN(C(=O)[C@@H]4CN4)[C@@H](CC#N)C3)n1)CCN(c1cc(O)cc3ccccc13)C2` [Example 115] the same measures were “+ (0 < x ≤ 20)” and 0.
For `C#CCCN1CCC[C@H]1COc1nc2c(c(N3CCN(C(=O)[C@H]4CN4)[C@@H](CC#N)C3)n1)CCN(c1cccc3cccc(C)c13)C2` [Example 116, 2-((S)-1-((R)-aziridine-2-carbonyl)-4-(2-(((S)-1-(but-3-yn-1-yl)pyrrolidin-2-yl)methoxy)-7-(8-methylnaphthalen-1-yl)-6,6,7,8-tetrahydropyrldo[3,4-d]pyrimidin-4-yl)piperazin-2-yl)acetonitrile] the same measures were “+ (0 < x ≤ 20)” and “+ (0 < x ≤ 20)”.
As to `C#CCCN1CCC[C@H]1COc1nc2c(c(N3CCN(C(=O)[C@@H]4CN4)[C@@H](CC#N)C3)n1)CCN(c1cccc3cccc(C)c13)C2` [Example 117, 2-((S)-1-((S)-aziridine-2-carbonyl)-4-(2-(((S)-1-(but-3-yn-1-yl)pyrrolidin-2-yl)methoxy)-7-(8-methylnaphthalen-1-yl)-5,6,7,8-tetrahydropyrido[3,4-d]pyrimidin-4-yl)piperazin-2-yl)acetonitrile], in assay [1], the “G12D x-linking (%)” value is recorded as “+ (0 < x ≤ 20)”. Moreover, the “WT x-linking (%)” value in assay [2] is given as 0.
For the molecule `CC(=O)N1C[C@H]1CN1CCN(c2nc(OC[C@@H]3CCCN3C)nc3c2CCN(c2cccc4cccc(C)c24)C3)C[C@@H]1CC#N` [Example 118, 2-((S)-1-(((R)-1-acetylaziridin-2-yl)methyl)-4-(7-(8-methylnaphthalen-1-yl)-2-(((S)-1-methylpyrrolidin-2-yl)methoxy)-5,6,7,8-tetrahydropyrido[3,4-d]pyrimidin-4-yl)piperazin-2-yl)acetonitrile], in assay [1], the “G12D x-linking (%)” value was “+ (0 < x ≤ 20)”. Besides, the “WT x-linking (%)” value in assay [2] is given as “+ (0 < x ≤ 20)”.
As for `CC(=O)N1C[C@@H]1CN1CCN(c2nc(OC[C@@H]3CCCN3C)nc3c2CCN(c2cccc4cccc(C)c24)C3)C[C@@H]1CC#N` [Example 119, 2-((S)-1-(((S)-1-acetylaziridin-2-yl)methyl)-4-(7-(8-methylnaphthalen-1-yl)-2-(((S)-1-methylpyrrolidin-2-yl)methoxy)-5,6,7,8-tetrahydropyrido[3,4-d]pyrimidin-4-yl)piperazin-2-yl)acetonitrile], the “G12D x-linking (%)” value in assay [1] is recorded as “+ (0 < x ≤ 20)”. Further, the “WT x-linking (%)” value in assay [2] is given as “+ (0 < x ≤ 20)”.
For the molecule `O=C([C@H]1CN1)N1CCN2c3ncnc4cc(-c5c(O)cccc5F)c(Cl)c(c34)OC[C@@H]2C1` [Example 120, ((R)-aziridin-2-yl)((8aS)-6-chloro-5-(2-fluoro-6-hydroxyphenyl)-8a,9,11,12-tetrahydropyrazino[2′,1′:3,4][1,4]oxazepino[5,6,7-de]quinazolin-10(8H)-yl)methanone], the “G12D x-linking (%)” value in assay [1] came out at 0. In assay [2], the “WT x-linking (%)” value was 0.
`O=C([C@@H]1CN1)N1CCN2c3ncnc4cc(-c5c(O)cccc5F)c(Cl)c(c34)OC[C@@H]2C1` [Example 121]: in assay [1], the “G12D x-linking (%)” value is 0. In addition, the “WT x-linking (%)” value in assay [2] turned out to be 0.
As to `Cc1ccc2[nH]ncc2c1-c1cc2ncnc3c2c(c1Cl)OCC[C@@H]1CN(C(=O)[C@@H]2CN2)CCN31` [Example 123], the “G12D x-linking (%)” value in assay [1] was 0. Also, in assay [2], the “WT x-linking (%)” value turned out to be 0.
`Cc1cccc2cccc(N3CCc4c(nc(OC[C@@H]5CCCN5C)nc4N4CC[C@@H](NC(=O)[C@H]5CN5)[C@@H](CC#N)C4)C3)c12` [Example 125]: the “G12D x-linking (%)” value in assay [1] is listed as “+ (0 < x ≤ 20)”. The “WT x-linking (%)” value in assay [2] is “+ (0 < x ≤ 20)”.
With `Cc1cccc2cccc(N3CCc4c(nc(OC[C@@H]5CCCN5C)nc4N4CC[C@H](NC(=O)[C@H]5CN5)[C@@H](CC#N)C4)C3)c12` [Example 126], the “G12D x-linking (%)” value in assay [1] was “+ (0 < x ≤ 20)”. Also, the “WT x-linking (%)” value in assay [2] is listed as “+ (0 < x ≤ 20)”.
As to `Cc1cccc2cccc(N3CCc4c(nc(OC[C@@H]5CCCN5C)nc4N4CC[C@H](NC(=O)[C@@H]5CN5)[C@@H](CC#N)C4)C3)c12` [Example 127], in assay [1], the “G12D x-linking (%)” value was “+ (0 < x ≤ 20)”. Also, the “WT x-linking (%)” value in assay [2] is on record as “+ (0 < x ≤ 20)”.
Consider `Cc1cccc2cccc(N3CCc4c(nc(OC[C@@H]5CCCN5C)nc4N4CC[C@@H](NC(=O)[C@@H]5CN5)[C@@H](CC#N)C4)C3)c12` [Example 128], for which the “G12D x-linking (%)” value in assay [1] is “+ (0 < x ≤ 20)”. In addition, in assay [2], the “WT x-linking (%)” value is “+ (0 < x ≤ 20)”.
On to `Cc1cccc2cccc(N3CCc4c(nc(OC[C@@H]5CCCN5C)nc4N4CC[C@@H](NC(=O)C5CN5)C4)C3)c12` (stereo partly drawn) [Example 129], for which, in assay [1], the “G12D x-linking (%)” value was “+ (0 < x ≤ 20)”. Besides, in assay [2], the “WT x-linking (%)” value stood at 0.
Taken in the same sequence, the figures for `Cc1cccc2cccc(N3CCc4c(nc(OC[C@@H]5CCCN5C)nc4N4CC[C@H](NC(=O)C5CN5)C4)C3)c12` (stereo partly drawn) [Example 130] were “+ (0 < x ≤ 20)” and 0.
Take `Cc1cccc2cccc(N3CCc4c(nc(OC[C@@H]5CCCN5C)nc4N4CCN(C(=O)[C@H]5CN5S(C)(=O)=O)[C@@H](CC#N)C4)C3)c12` (stereo partly drawn) [Example 131]: the “G12D x-linking (%)” value in assay [1] is “+ (0 < x ≤ 20)”. In addition, the “WT x-linking (%)” value in assay [2] is reported as “+ (0 < x ≤ 20)”.
